Assay results taken from ChEMBL document CHEMBL1201862, “PubChem BioAssay data set” (2004).
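Results reflect a 48-hour exposure of cells in 96-well plates to compound at five concentrations. Here, GI50 denotes the concentration required for 50% inhibition of growth.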 Active and inactive are the calls of the source. No stated cut-off is given here; in the data, active = GI50 up to about 1.1 µM and inactive = higher.

Columns and labels:
Experiment in all cases: DTP human tumour cell line panel, 48 h
DU-145 = tested on: DU-145
SN12C = tested on: SN12C
SF-268 = tested on: SF-268
Malme-3M = tested on: Malme-3M
ACHN = tested on: ACHN
Hs-578T = tested on: Hs-578T
MDA-MB-231 = tested on: MDA-MB-231
A498 = tested on: A498
HCC 2998 = tested on: HCC 2998
T47D = tested on: T47D
NCI-H522 = tested on: NCI-H522
HOP-62 = tested on: HOP-62
SK-MEL-5 = tested on: SK-MEL-5
NCI-H460 = tested on: NCI-H460
U-251 = tested on: U-251
CAKI-1 = tested on: CAKI-1
NCI/ADR-RES = tested on: NCI/ADR-RES
OVCAR-3 = tested on: OVCAR-3
MCF7 = tested on: MCF7

Measured: GI50

CN(C)C(=S)N1C(=S)N(c2ccccc2)C(=N/c2ccccc2)/C1=N\c1ccccc1
inactive: DU-145 > 100 µM | SN12C > 100 µM | SF-268 > 100 µM | Malme-3M > 100 µM | ACHN > 100 µM | Hs-578T > 100 µM | MDA-MB-231 > 100 µM | A498 > 100 µM | HCC 2998 > 100 µM | T47D > 100 µM | NCI-H522 6.82 µM | HOP-62 > 100 µM | SK-MEL-5 > 100 µM | NCI-H460 > 100 µM | U-251 > 100 µM | CAKI-1 > 100 µM | NCI/ADR-RES > 100 µM

COc1ccc(NC(=S)c2ccc(CN3CCCCC3)s2)cc1
inactive: DU-145 38.2 µM | SN12C 47 µM | SF-268 18 µM | OVCAR-3 33.6 µM | Malme-3M 17.5 µM | ACHN 31 µM | Hs-578T 12.6 µM | A498 16.2 µM | HCC 2998 16.6 µM | T47D 19.8 µM | NCI-H522 14.8 µM | HOP-62 20.6 µM | SK-MEL-5 14.3 µM | NCI-H460 17.5 µM | U-251 17.1 µM | MCF7 17 µM | CAKI-1 27.9 µM | NCI/ADR-RES 23 µM

COC(=O)C(CNC(=O)/C=C/c1ccc(OC(C)=O)c(OC(C)=O)c1)NC(=O)/C=C/c1ccc(OC(C)=O)c(OC(C)=O)c1 (stereo not given)
inactive: DU-145 > 100 µM | SN12C > 100 µM | SF-268 > 100 µM | OVCAR-3 > 100 µM | Malme-3M > 100 µM | ACHN > 100 µM | Hs-578T > 100 µM | MDA-MB-231 > 100 µM | A498 > 100 µM | HCC 2998 > 100 µM | T47D 77.3 µM | NCI-H522 32.1 µM | HOP-62 > 100 µM | SK-MEL-5 > 100 µM | NCI-H460 > 100 µM | U-251 88.7 µM | MCF7 > 100 µM | CAKI-1 > 100 µM

O=C(O)CN1CCNCCNCC1
inactive: DU-145 > 100 µM | SN12C > 100 µM | OVCAR-3 > 100 µM | ACHN > 100 µM | Hs-578T > 100 µM | MDA-MB-231 > 100 µM | A498 > 100 µM | T47D > 100 µM | HOP-62 > 100 µM | SK-MEL-5 > 100 µM | NCI-H460 > 100 µM | U-251 > 100 µM | MCF7 > 100 µM | CAKI-1 > 100 µM | NCI/ADR-RES > 100 µM

Nc1ncnc2c1ncn2C1C=CC(CP(=O)(O)O)C1 (stereo not given)
inactive: DU-145 > 100 µM | SN12C > 100 µM | SF-268 > 100 µM | OVCAR-3 > 100 µM | Malme-3M > 100 µM | ACHN > 100 µM | Hs-578T 11 µM | MDA-MB-231 > 100 µM | HCC 2998 > 100 µM | T47D > 100 µM | HOP-62 > 100 µM | SK-MEL-5 > 100 µM | NCI-H460 > 100 µM | U-251 > 100 µM | MCF7 > 100 µM | CAKI-1 > 100 µM | NCI/ADR-RES > 100 µM

CC(=O)N1C(c2[nH]c3ccccc3c2-c2ccccc2)CCN1c1ccccc1 (stereo not given)
inactive: DU-145 > 10 µM | SN12C > 10 µM | SF-268 > 10 µM | OVCAR-3 > 10 µM | Malme-3M > 10 µM | ACHN > 10 µM | Hs-578T > 10 µM | MDA-MB-231 > 10 µM | HCC 2998 > 10 µM | T47D > 10 µM | NCI-H522 > 10 µM | HOP-62 > 10 µM | SK-MEL-5 > 10 µM | NCI-H460 > 10 µM | MCF7 > 10 µM | CAKI-1 > 10 µM | NCI/ADR-RES > 10 µM

CC1(C)CC(O)C(C)(C)[C@@H](O)C1 (stereo not given in full)
inactive: DU-145 > 100 µM | SN12C > 100 µM | SF-268 > 100 µM | Malme-3M > 100 µM | ACHN > 100 µM | Hs-578T > 100 µM | MDA-MB-231 > 100 µM | HCC 2998 > 100 µM | T47D > 100 µM | NCI-H522 > 100 µM | HOP-62 > 100 µM | SK-MEL-5 > 100 µM | NCI-H460 > 100 µM | U-251 > 100 µM | MCF7 > 100 µM | CAKI-1 > 100 µM | NCI/ADR-RES > 100 µM

COc1ccc(/C=C2\CN(C)CC3C2=NN(c2ccccc2)C3c2ccc(OC)cc2)cc1 (stereo not given)
inactive: DU-145 > 100 µM | SN12C > 100 µM | SF-268 > 100 µM | OVCAR-3 > 100 µM | Malme-3M 41.7 µM | ACHN 77.1 µM | Hs-578T 42.8 µM | A498 33.8 µM | HCC 2998 > 100 µM | T47D > 100 µM | NCI-H522 72.9 µM | HOP-62 38 µM | SK-MEL-5 > 100 µM | NCI-H460 > 100 µM | MCF7 > 100 µM | CAKI-1 60 µM | NCI/ADR-RES > 100 µM

O=c1[nH]nc(-c2ccccc2)c2[nH]c3c(c12)CCCc1ccccc1-3
inactive: DU-145 17.6 µM | SN12C 16.6 µM | SF-268 24.9 µM | OVCAR-3 19.3 µM | Malme-3M 11.8 µM | ACHN 11.9 µM | Hs-578T 17 µM | MDA-MB-231 15.9 µM | HCC 2998 14.8 µM | T47D 8.97 µM | NCI-H522 7.69 µM | HOP-62 19.3 µM | SK-MEL-5 12.4 µM | NCI-H460 16 µM | U-251 11.4 µM | MCF7 19.6 µM | CAKI-1 22 µM | NCI/ADR-RES 12.4 µM

CC(=O)C12C[C@](C#N)(N3CCCCCC3)C1C=Cc1ccccc12 (stereo not given in full)
inactive: DU-145 > 100 µM | SN12C > 100 µM | SF-268 > 100 µM | OVCAR-3 > 100 µM | ACHN > 100 µM | Hs-578T > 100 µM | MDA-MB-231 > 100 µM | HCC 2998 > 100 µM | T47D > 100 µM | NCI-H522 > 100 µM | HOP-62 > 100 µM | SK-MEL-5 > 100 µM | NCI-H460 > 100 µM | U-251 > 100 µM | MCF7 > 100 µM | CAKI-1 > 100 µM | NCI/ADR-RES > 100 µM

O=C(O)Cc1cc(O)c(CC(=O)O)cc1O
inactive: DU-145 > 100 µM | SN12C > 100 µM | SF-268 > 100 µM | OVCAR-3 > 100 µM | Malme-3M > 100 µM | ACHN > 100 µM | Hs-578T > 100 µM | MDA-MB-231 > 100 µM | A498 > 100 µM | HCC 2998 > 100 µM | T47D > 100 µM | NCI-H522 > 100 µM | HOP-62 > 100 µM | SK-MEL-5 > 100 µM | NCI-H460 > 100 µM | U-251 > 100 µM | CAKI-1 > 100 µM | NCI/ADR-RES > 100 µM

O=C1NC(N2CCOCC2)=N/C1=C\c1ccco1
inactive: DU-145 > 100 µM | SN12C > 100 µM | SF-268 > 100 µM | OVCAR-3 > 100 µM | ACHN > 100 µM | Hs-578T > 100 µM | MDA-MB-231 > 100 µM | HCC 2998 > 100 µM | T47D > 100 µM | NCI-H522 > 100 µM | HOP-62 > 100 µM | SK-MEL-5 > 100 µM | U-251 > 100 µM | MCF7 > 100 µM | CAKI-1 > 100 µM | NCI/ADR-RES > 100 µM
